According to US9089532B2, “Stable dosage form of phenylalanine derivatives” (Wilex AG, priority 2004, dated 2015):

Experiments:
Format in all cases: physicochemical
[1] = pH-dependency of active ingredient breakdown at 60° C.; details: ethanol/water 1:1, 60° C., up to 48 h
Description: The pH-dependency of active ingredient breakdown (WX-UK1) was investigated at three different pH values with heat treatment at 60° C. by dissolving 2.5 mg of WX-UK1 in 1 ml of ethanol/water (1:1 vol/vol). This solution was aliquoted into three vessels. One aliquot was adjusted to pH 2 by addition of 20 μl of 1 N hydrochloric acid, a second aliquot was adjusted to pH 11 by addition of 20 μl of 2 N sodium hydroxide solution and the third aliquot was left at a neutral pH. After incubation, the solutions were analysed at defined points in time (0, 5, 12 and 48 h) by means of a stability-indicating HPLC method.

[2] = Earlier investigations: addition of phosphate buffer to WX-UK1 solutions
[3] = Stability study at 40° C./75% RH of the unbuffered PG/EtOH/water formulation (impurity content, pH value); details: 40 mg/ml in PG/ethanol/water, stored at 40° C., 2-12 weeks
Description: At the same time, the pH value of the formulation rose from 5.1 to 8.7 over a period of 12 weeks (FIG. 1).
0.4 ml of propylene glycol (PG) and 0.1 ml of ethanol were added in succession to 40 mg of WX-UK1. […] The remaining water (approx. 0.2 ml) was then added. The solution was then stored at 40° C. and the pH value and purity of the solution were in each case analysed after a period of 2, 4, 6, 8 and 12 weeks. To this end, 250 μl of the WX-UK1 solution were transferred into a 100 ml measuring flask and made up with water/acetonitrile (50:50 vol/vol) to the graduation mark (concentration: approx. 0.1 mg/ml of WX-UK1). 20 μl of this dilution were then analysed by means of a stability-indicating HPLC method analysed (see Annex). pH value-analysis of the WX-UK1 solution was carried out by means of a potentiometric method at 20-25° C.

[4] = Preliminary testing: solubility of WX-UK1 in solvents and solvent mixtures; details: in polyols, for example diols, and in mixtures of polyol/alcohol and water
Source text: Both solvents are additionally suitable for parenteral administration of active ingredients.
FIG. 1 is a Table showing the maximum solubility of WX-UK1 in various solvents and solvent mixtures.

[5] = Stability of sodium acetate-buffered solutions of various molarities at 60° C.; details: buffering the formulation with sodium acetate pH 5, 60° C., relative to unbuffered formulation
Description: The stability study was carried out at 60° C. in order to achieve accelerated breakdown of WX-UK1 (FIG. 5). The WX-UK1 peak area percentage, determined by a stability-indicating HPLC method, was evaluated.

- stability (breakdown, HPLC) ([1]; acidic pH (pH 2)): remained stable
- stability (breakdown, HPLC) ([1]; neutral or basic pH (pH 11)): moderate to rapid breakdown
- precipitate formation [2]: formation of a precipitate
- solubility [4]: very good solubility
Structure (SMILES): CCOC(=O)N1CCN(C(=O)[C@H](Cc2cccc(C(=N)N)c2)NS(=O)(=O)c2c(C(C)C)cc(C(C)C)cc2C(C)C)CC1 [WX-UK1, Nα-(2,4,6-triisopropylphenylsulfonyl)-3-amidino-(L)-phenylalanine-4-ethoxycarbonylpiperazide]
- breakdown in relation to pH value of the solution [3]: the higher is the pH value of the solution, the faster WX-UK1 breaks down
- rate of breakdown [5]: considerable reduction in the rate of breakdown
